Data from patent US8304206B2, “Mass spectrometry assays for identifying compounds that activate deacetylases” (Sirtris Pharmaceuticals, Inc., priority 2005, dated 2012).
Read-outs that look alike come from different tables or passages of the source.

Key:
SIRT1 [1] = target: T1, SIRT1 (Homo sapiens, UniProt Q96EB6); experiment: DMSO tolerance of SIRT1 mass spectrometry assay; type: biochemical
T1 sequence (Q96EB6 1-747): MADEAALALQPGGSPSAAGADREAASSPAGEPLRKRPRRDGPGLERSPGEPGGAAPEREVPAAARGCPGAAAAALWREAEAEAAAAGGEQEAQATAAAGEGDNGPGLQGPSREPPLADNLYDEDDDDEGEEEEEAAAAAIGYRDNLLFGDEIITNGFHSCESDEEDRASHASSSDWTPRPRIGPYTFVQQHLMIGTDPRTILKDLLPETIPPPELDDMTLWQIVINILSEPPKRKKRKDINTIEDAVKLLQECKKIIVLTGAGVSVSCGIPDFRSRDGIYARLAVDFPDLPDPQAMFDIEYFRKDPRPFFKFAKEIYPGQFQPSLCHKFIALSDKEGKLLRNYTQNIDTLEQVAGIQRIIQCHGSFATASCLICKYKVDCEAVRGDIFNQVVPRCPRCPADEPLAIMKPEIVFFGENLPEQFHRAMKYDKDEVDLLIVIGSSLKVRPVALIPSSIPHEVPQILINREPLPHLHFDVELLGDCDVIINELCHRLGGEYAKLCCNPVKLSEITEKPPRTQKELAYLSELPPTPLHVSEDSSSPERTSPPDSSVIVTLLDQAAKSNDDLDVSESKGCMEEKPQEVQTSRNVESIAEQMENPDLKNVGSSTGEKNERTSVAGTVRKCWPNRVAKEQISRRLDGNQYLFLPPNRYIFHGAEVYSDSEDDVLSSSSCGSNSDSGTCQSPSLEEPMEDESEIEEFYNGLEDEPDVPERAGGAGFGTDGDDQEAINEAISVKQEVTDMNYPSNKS
Experimental: To determine the tolerance of the SIRT1 mass spectrometry assay for DMSO, a rate based experiment was performed at multiple concentrations of DMSO.
Formic acid (10 μL of 10%) was added to all of the wells in column 1 of the 96 well assay plate. Eight concentrations of DMSO (40%, 20%, 10%, 5.0%, 2.5%, 1.25%, 0.625%, and 0.313%) were prepared in buffer containing 50 mM Tris HCl pH 8.0, 137 mM, NaCl, 2.7 mM, KCl, 1 mM MgCl2, 5 mM DTT, and 0.05% BSA.
This DMSO titration was prepared by making a 2000 μL solution of 40% DMSO in 50 mM Tris HCl pH 8.0, 137 mM, NaCl, 2.7 mM, KCl, 1 mM MgCl2, 5 mM DTT, and 0.05%. BSA in well A1 of a Costar 2 mL 96 well Assay Block. Dilution Working Solution (1000 μL; 50 mM Tris HCl pH 8.0, 137 mM, NaCl, 2.7 mM, KCl, 1 mM MgCl2, 5 mM DTT, and 0.05% BSA) was added to wells B1, C1, D1, E1, F1, G1 and H1. 1000 μL of the 40% DMSO in buffer solution was transferred from A1 to […] and the solution was mixed 5 times. This process was repeated with wells in column 1 until well H1 was reached.
Using an 8 channel multi-pipette, 50 μl was transferred from column 1 of the 2 mL 96 well assay block to all columns of a 96 well assay plate.
25 μL of Enzyme Working Solution (40 nM SIRT1, 50 mM Tris HCl pH 8.0, 137 mM, NaCl, 2.7 mM, KCl, 1 mM MgCl2, 5 mM DTT, and 0.05% BSA) was prepared and added to each well of the 96-well round bottom assay plate. […]
At 0, 2, 5, 10, 15, 20, 25, 25, 30, 35, 40, 45, and 60 minutes, the reaction was stopped with 10% formic acid and the conversion of substrate to product was determined by mass spectrometry. The activity of SIRT1 at each concentration of DMSO was monitored by comparing the percent conversion of Acetylated Peptide Substrate to Deacetylated Peptide Product over time. […]
Product formation versus time was plotted for each concentration of DMSO tested. The rate was determined by taking the slope from the linear part of the time course. […]

NCI-H358 cells = experiment: Cellular ATP Assay (ATPLite 1Step normalized to AlamarBlue viability); type: cell-based, human; settings: compounds that raised intracellular ATP levels, 48 hours, read-out: ED50 ATP ASSAY
Experimental: Cellular ATP levels are an indirect measurement of cellular metabolic rates and, by extension, mitochondrial function. […] The ATP assay is combined with a cellular viability assay so that cellular ATP levels can be normalized to viable cells. Cellular ATP levels were measured using the ATPLite 1Step Kit (PerkinElmer) and cellular viability was measured using the cell permeable dye, AlamarBlue™.
The Cellular ATP Assay is a multiplexed assay that measures both ATP levels and viability of a given cell sample. This assay is run in a 96-well Assay Plate and data are reported as the [ATP]/viability for each well in the Assay Plate.
The ATPLite 1Step™ Kit is a single-step luminescent cell-based assay for detection of ATP. The kit contains lyophilized substrate mixture, comprised of D-luciferin and the firefly (Photinus pyralis) enzyme luciferase. Additionally, the kit contains a detergent-based reconstitution buffer that induces the lysis of cellular membranes. The luciferase in the assay mixture catalyzes a reaction between the free cellular ATP and D-luciferin to produce bioluminescence according to the schematic reaction outlined below. […]
The AlamarBlue™ Assay is a single-step assay that utilizes a soluble, non-toxic, cell permeable dye that is added to cell growth media. […] The reduced dye product gives a fluorescent signal which can be monitored with a fluorescence plate reader (excitation 545 nm and emission 575 nm). The amount of fluorescence generated in a given well is proportional to the number of viable cells. […]
In this assay NCI-H358 cells (obtained from the American Tissue Culture Collection, ATCC) were seeded in 96 well microplates (10^4 cells/well). […] Cell microplates were incubated with dye for 2 hours under growth conditions, and fluorescence was subsequently measured using a plate reader. […] Luminescence was then measured using a plate reader. The ATP signal for each well, measured by the luminescence scan, was normalized to its corresponding cell viability value, measured by the fluorescence scan, to generate the average ATP level per viable cell unit (ATP/vCell). […]

SIRT1 [2] = target: T1, SIRT1; experiment: SIRT1 mass spectrometry assay (screening for activation); type: biochemical; settings: for FOLD ACTIVATION MS: activation of SIRT1, mass spectrometry; for EC50: activation of SIRT1, 0.5 μM peptide substrate (SEQ ID NO: 34), 120 μM NAD+, 10 nM SIRT1, 25 min, read-out: ED50 MS ASSAY

SMILES	FOLD ACTIVATION MS (SIRT1 [2])	EC50 (SIRT1 [2])	other results
C[S+](C)[O-] [DMSO]	–	–	decrease of SIRT1 enzyme activity (SIRT1 [1]; 0.625% DMSO): 9.1%; decrease of SIRT1 enzyme activity (SIRT1 [1]; 1.25% DMSO): 21%; decrease of SIRT1 enzyme activity (SIRT1 [1]; 2.5% DMSO): 36%
O=C(NNc1c2ccccc2nc2ccccc12)c1cccnc1 [compound 11]	–	–	EC50 (NCI-H358 cells; Homo sapiens, NCI-H358): < 50 µM
COc1cccc(OC)c1C(=O)Nc1cccc(-c2nc3ccccc3s2)c1 [compound 120]	–	–	EC50 (NCI-H358 cells): < 50 µM
COc1ccc(C(=O)Nc2ccccc2-c2cc3ccccc3[nH]2)cc1OC [compound 254]	B (Fold Activation<250%)	< 50 µM	–
COc1cc(C(=O)Nc2ccccc2-c2cc3ccccc3[nH]2)cc(OC)c1OC [compound 255]	B (Fold Activation<250%)	< 50 µM	–
COC(=O)c1ccc(-n2cncn2)c(NC(=O)c2ccc(OC)c(OC)c2)c1 [compound 258]	B (Fold Activation<250%)	–	–
COc1cc(C(=O)Nc2cccc(-c3nc4ccccc4[nH]3)n2)cc(OC)c1OC [compound 259]	A (Fold activation>250%)	< 50 µM	–
COc1ccc(C(=O)Nc2cccc(-c3nc4ccccc4[nH]3)n2)cc1OC [compound 260]	A (Fold activation>250%)	< 50 µM	–
COc1cccc(C(=O)Nc2cccc(-c3nc4ccccc4[nH]3)n2)c1 [compound 261]	A (Fold activation>250%)	< 50 µM	–
COc1ccc(C(=O)Nc2ccc(-c3nc4ccccc4[nH]3)cc2)c(OC)c1 [compound 262]	B (Fold Activation<250%)	< 50 µM	–
COc1cc(C(=O)Nc2ccc(-c3nc4ccccc4[nH]3)cc2)cc(OC)c1OC [compound 263]	B (Fold Activation<250%)	–	–
CN(C)c1cccc(C(=O)Nc2ccc(-c3cc4ccccc4[nH]3)cc2)c1 [compound 264]	B (Fold Activation<250%)	< 50 µM	–
COc1ccc(C(=O)Nc2ccccc2-c2cn3ccccc3n2)c(OC)c1 [compound 265]	B (Fold Activation<250%)	–	–
COc1ccc(C(=O)Nc2ccccc2-c2cn3ccccc3n2)cc1OC [compound 266]	A (Fold activation>250%)	< 50 µM	–
COc1cc(C(=O)Nc2ccccc2-c2cn3ccccc3n2)cc(OC)c1OC [compound 267]	B (Fold Activation<250%)	< 50 µM	–
CN(C)c1cccc(C(=O)Nc2ccccc2-c2cn3ccccc3n2)c1 [compound 268]	B (Fold Activation<250%)	< 50 µM	–
COc1ccc(C(=O)Nc2ccccc2-c2cn3cc(CN4CCNCC4)sc3n2)cc1OC [compound 270]	A (Fold activation>250%)	–	–
COc1cc(C(=O)Nc2ccccc2-c2cn3cc(CN4CCNCC4)sc3n2)cc(OC)c1OC [compound 271]	A (Fold activation>250%)	< 50 µM	–
COc1ccc(C(=O)Nc2cccc(-c3nc4cnccc4s3)c2)c(OC)c1 [compound 272]	B (Fold Activation<250%)	< 50 µM	–
COc1cc(C(=O)Nc2cccc(-c3nc4cnccc4s3)c2)cc(OC)c1OC [compound 273]	A (Fold activation>250%)	–	–
COc1ccc(C(=O)Nc2ncccc2-c2nc3ccccc3[nH]2)cc1OC [compound 276]	B (Fold Activation<250%)	< 50 µM	–
CC(=O)Nc1ccc(S(=O)(=O)Nc2cccc(-c3nc4ccncc4s3)c2)cc1 [compound 288]	B (Fold Activation<250%)	–	–
COc1ccc(S(=O)(=O)Nc2cccc(-c3nc4ccncc4s3)c2)cc1OC [compound 289]	B (Fold Activation<250%)	–	–
